The results in this text go back to patent US6248718A, “Lesion-directed dry dosage forms of antibacterial agents for the treatment of acute mucosal infections of the oral cavity” (priority 1999, dated 2001).

Data set [1] can be described thus: Local concentrations of penicillin in saliva after penicillin G potassium 50 mg tablet (Example IX). In kind it is in vivo, human. How it is done: Five healthy adult volunteers, three men and two women, were selected for this study.
On the day of study, two hours after breakfast, the volunteers were given a single tablet of the drug, placed in the right oral sulcus between the lower gum and the buccal mucosa to be dissolved in a minimum amount of saliva in about six (6) minutes. This loculated pocket of saliva was not to be swallowed and was not to be further diluted by saliva from other parts of the mouth for one hour. At 6 minutes, 20 minutes, 40 minutes and 60 minutes after drug application, an aliquot of 0.01 ml was aspirated from this pocket of saliva and added into a test tube containing 10 ml of nutrient broth to give a 1,000 times dilution. After being mixed well, aliquots of the mixtures of saliva sample and nutrient broth were forced to pass through bacterial filters into sterile test tubes. Thcn 0.8 ml of each 1:1,000 diluted filtrate was pipetted and added to 3.2 ml of nutrient broth to make an additional 5 times dilution in a volume of 4 ml. Two ml was pipetted from the latter to make a serial double dilution of saliva sample in 2 ml of nutrient broth, as described above under a, in 12 test tubes. The dilution factor for the saliva sample in test No. 1 was 5,000 and […] progressively to 1:10,240,000 in test tube No.12.
Each filtered mixture in test tube was inoculated with 0.1 ml of a 1:1,000 dilution of a 12 hour broth culture of Staphyloccus aureus ATCC 29213.
A row of 6 test tubes each containing 2 ml of nutrient broth with decreasing concentrations of penicillin G potassium, USP Reference Standard 502508, at 6.2, 3.1, 1.5, 0.75, 0.32, and 0.16 mcg/ml, using a serial double dilution method described in a., was prepared and similarly inoculated with 0.1 ml broth culture of Staphyloccus aureus ATCC 29213 as the standard.
All test tubes were incubated at 37° C. for 18 hours and observed for bacterial growth against an inoculated broth containing neither antibiotic nor saliva samples.
The test tube of highest number with the highest dilution factor of saliva in nutrient broth in which no bacterial growth was observed was interpreted as containing an equivalent of penicillin G potassium at 0.75 mcg/ml. Using the dilution factors, it was calculated that, after topical application of the drug product, the concentrations of penicillin G potassium in the saliva at the site of medication within the first hour were as follows.

The nature of data set [2]: Local concentration of penicillin in saliva after a troche containing 50 mg penicillin G. In kind it is in vivo, human. The settings on record: 50 mg troche, end of one hour; 60 min. Here is the method: The local concentration of penicillin in the saliva was determined as follows. […] This loculated pocket of saliva was not swallowed and was not to be diluted with excess saliva from other parts of the mouth for one hour. Two samples were taken for assay to determine the peak and trough local concentrations of penicillin during the one-hour duration of medicinal treatment. At the time when the troche was completely dissolved and one hour later, aliquots of 10 microliters were pipetted from this pocket of saliva solution at the site of medication, representing the peak level and the trough level of antibiotic concentration, and transferred into 10 ml of distilled water to make a 1:1.000 dilution and into 1 ml of distilled water to make a 1:100 dilution, respectively. The diluted saliva antibiotic solutions were passed through a sterile bacteria-filter to remove any bacterial or fungal contaminants of the oral flora.
For determination of the peak concentration, 1 ml of the bacteria-free filtrate was further diluted with 9 ml of nutrient broth to achieve a 1:10,000 dilution of the saliva. Then a serial two-fold dilution was made of this 1:10,000 diluted saliva sample with an equal volume of nutrient broth in a roll of test tubes to obtain a series of 1 ml aliquots of nutrient broth in which the saliva was diluted to 20,000, 40,000, 80,000, 160,000, 320,000, 640,000, 1,280,000 and 2,560,000 folds respectively. […] Thus the final dilutions of the saliva sample were in the range of 40,000 to 5,120,000 folds.
For determining the trough concentration, the entire 1 ml of the 1:100 diluted saliva filtrate was used to make the serial dilutions so that the final dilutions of saliva sample were in the range of 4,000 to 256,000 folds in the final test culture.
As control standards, a series of test tubes containing 1 ml of nutrient broth with varying concentrations of penicillin G potassium salt ranging from 0.1 units to 10 units/ml were similarly mixed with an equal volume of nutrient broth freshly inoculated with the standard tubes of Staphylococcus aureus. Both the test and control standard tubes were incubated at 37° C. for 18 hours. Among the test tubes showing no gross evidence of bacterial growth, the one containing the highest dilution of saliva and the one containing the least amount of penicillin G were considered as having the identical concentration of penicillin, i.e. the MIC of the staphylococcus aureus.

For the molecule `CC1(C)S[C@@H]2[C@H](NC(=O)Cc3ccccc3)C(=O)N2[C@H]1C(=O)O` [penicillin G potassium], the concentration at 0.1 h in data set [1] (human, saliva, topical or ocular, 50 mg tablet, 6 min) fell in the range of 240000 to 480000 µg/mL. The concentration at 20 min in data set [1] (human, saliva, topical or ocular, 50 mg tablet, 20 min) fell in the range of 120000 to 240000 µg/mL. The molecule further showed a concentration at 40 min in data set [1] (human, saliva, topical or ocular, 50 mg tablet, 40 min) of 30000 to 60000 µg/mL. Further, in data set [1] (human, saliva, topical or ocular, 50 mg tablet, 60 min), the concentration at 1 h lay within 7500 to 15000 µg/mL. Moreover, the “initial local concentration in saliva” value in data set [1] (tablet of 50 mg penicillin G potassium) is “about 480 mg/ml”. Besides, the “local concentration in saliva in one hour” value in data set [1] (tablet of 50 mg penicillin G potassium, 60 min) lay within 7.5 to 15 mg/mL. Further, the “local trough concentration in saliva” value in data set [2] was in the range of 7.5 to 15 mg/mL.
